Measurements published in patent publication US9938292B2 (GUANGDONG ZHONGSHENG PHARMACEUTICAL CO., LTD, priority 2014, dated 2018).

system: Hedgehog signaling pathway; assay: Gli-Luc luciferase reporter gene assay in C3H10T1/2/Gli-Luc cells under Shh-N stimulation; assay type: cell-based; conditions: Mus musculus, C3H 10T1/2, 24 h, luciferase RLU, read-out: biological activity: IC50 of the inhibitory activities of compounds on the hedgehog pathway
From the text: The luciferase (Gli-Luc) reporter gene with Gli response element was transfected into C3H10T1/2 cells, under Shh-N stimulation conditions, determine the Hedgehog signaling pathway inhibitors through the detection of gene expression in cell activity report. In this study, we evaluated the inhibitory effects of compounds on Hedgehog signaling pathway in the IC50 value of the compound as an index.
Cell lines: C3H10T1/2/Gli-Luc stable cell line • C3H10T1/2/Gli-Luc Cell culture medium (DMEM/high glucose HyClone, #SH30022.01B; 10% serum Hyclone, #SV30087; 0.4% Hygromycin B Roche, #13398200) • 0.25% Trypsin-EDTA (Gibco, #25200)
Shh-N, HEK293/SHH-N stable cell culture supernatant
Inoculate the logarithmic growth phase of C3H10T1/2/Gli-Luc cells into a 96-well culture plate with 20000 cells per well, cells were cultured in a 37° C., 5% CO2 incubator overnight. The next day, the compounds were diluted in the following ways: the positive compound GDC0449 (1 mM) and the compounds (1 mM) to be measured were serially diluted to 7 concentrations by DMSO according to 1:3 and 1:10 respectively, the eighth is for DMSO control, and then diluted with fresh medium 100 times. The medium of the cells cultured overnight was removed, 80 μL fresh culture medium was added per well, then 20 μL gradiently diluted positive compound and compounds to be measured and 100 μL 30 nM Shh-N containing conditioned medium were added, each concentration repeated 2 wells, at the same time, positive and negative reference well were set (i.e. Shh Ctrl: 80 μL fresh medium+20 μL 1% DMSO containing medium+100 μL 30 nM Shh-N containing conditioned medium; Unstimulated Ctrl: 180 μL fresh medium+20 μL 1% DMSO containing medium), cells were cultured in the incubator for further 24 h.
Intracellular luciferase activity detection: take the cells out of 96-well plate, discard the culture medium, the cells were washed with PBS twice, then each well added with 20 μL lysate (Promega E1531), oscillate pyrolysis at room temperature for 30 min. 5 μL cell lysates were transferred to 384-well plate (Greiner 781074), then each well was added with 25 μL luciferase reaction liquid (Promega E1501), after rapid mixed, immediately placed into the VarioSkan Flash multi-function reading instrument to read the relative light units (RLU) value.
Data analysis: using Prism's GraphPad 5 for data analysis. RLU reading to the logarithmic mapping of compound concentration on behalf of luciferase activity, and then curve fitting using the following equation to give IC50 value, Y (RLU)=minimum+(maximum−minimum)/(1+10^(log of compound concentration−Log IC50)).

Row | Compound | IC50 [µM]
1 | Cc1cn(-c2ccc(N3C[C@@H](C)O[C@@H](C)C3)cc2)c(=O)c2cccc(-c3cccn3C)c12 [Embodiment 48] | 1 to 5
2 | Cc1cn(-c2ccc(N3C[C@@H](C)O[C@@H](C)C3)cc2)c(=O)c2cccc(-c3ccncc3)c12 [Embodiment 49] | 0.5 to 1
3 | Cc1cn(-c2ccc(N3C[C@@H](C)O[C@@H](C)C3)cc2)c(=O)c2cccc(-c3ccc(F)cc3)c12 [Embodiment 50] | 0.5 to 1
4 | Cc1cn(-c2ccc(N3C[C@@H](C)O[C@@H](C)C3)cc2)c(=O)c2cccc(-c3ccc(Cl)cc3)c12 [Embodiment 51] | 0.1 to 0.5
5 | Cc1cn(-c2ccc(N3C[C@@H](C)O[C@@H](C)C3)cc2)c(=O)c2cccc(-c3ccc(C#N)cc3)c12 [Embodiment 52] | 0.1 to 0.5
6 | Cc1cn(-c2ccc(N3C[C@@H](C)O[C@@H](C)C3)cc2)c(=O)c2cccc(-c3ccccn3)c12 [Embodiment 53] | 0.5 to 1
7 | Cc1cn(-c2ccc(N3C[C@@H](C)O[C@@H](C)C3)cc2)c(=O)c2cccc(-c3cncnc3)c12 [Embodiment 54] | 1 to 5
8 | Cc1cn(-c2ccc(N3C[C@@H](C)O[C@@H](C)C3)cc2)c(=O)c2cccc(-c3ccc(C#N)cn3)c12 [Embodiment 55] | 1 to 5
9 | Cc1cn(-c2ccc(N3C[C@@H](C)O[C@@H](C)C3)cc2)c(=O)c2cccc(-c3ccc(C#N)nc3)c12 [Embodiment 56] | 0.5 to 1
10 | Cc1cn(-c2ccc(N3C[C@@H](C)O[C@@H](C)C3)cc2)c(=O)c2cccc(-c3ccccc3)c12 [Embodiment 57] | 0.5 to 1
11 | Cc1cn(-c2ccc(N3C[C@@H](C)O[C@@H](C)C3)cc2)c(=O)c2cccc(-c3ccc(C#N)c(F)c3)c12 [Embodiment 59] | 0.5 to 1
12 | Cc1cn(-c2ccc(N3C[C@@H](C)O[C@@H](C)C3)cc2)c(=O)c2cccc(-c3ccc(C#N)cc3F)c12 [Embodiment 60] | 0.1 to 0.5
13 | Cc1cc(-c2cccc3c(=O)n(-c4ccc(N5C[C@@H](C)O[C@@H](C)C5)cc4)cc(C)c23)ccc1C#N [Embodiment 61] | 0.1 to 0.5
14 | Cc1cc(C#N)ccc1-c1cccc2c(=O)n(-c3ccc(N4C[C@@H](C)O[C@@H](C)C4)cc3)cc(C)c12 [Embodiment 62] | 0.1 to 0.5
15 | Cc1cn(-c2ccc(N3C[C@@H](C)O[C@@H](C)C3)cc2)c(=O)c2cccc(-c3cccc(C#N)c3)c12 [Embodiment 63] | 1 to 5
16 | Cc1cn(-c2ccc(N3C[C@@H](C)O[C@@H](C)C3)cc2)c(=O)c2cccc(-c3ccccc3C#N)c12 [Embodiment 64] | 0.5 to 1
17 | Cc1cn(-c2ccc(N3C[C@@H](C)O[C@@H](C)C3)cc2)c(=O)c2cccc(-c3ccc(Br)cc3)c12 [Embodiment 65] | 0.5 to 1
18 | Cc1cn(-c2ccc(N3C[C@@H](C)O[C@@H](C)C3)nc2)c(=O)c2cccc(-c3ccc(C#N)cc3)c12 [Embodiment 66] | 0.5 to 1
19 | Cc1cn(-c2ccc(N3C[C@@H](C)O[C@@H](C)C3)nc2)c(=O)c2cccc(-c3ccc(C(F)(F)F)cc3)c12 [Embodiment 67] | 0.5 to 1

Row | Compound | IC50 [µM]
20 | Cc1cn(-c2ccc(N3C[C@@H](C)O[C@@H](C)C3)nc2)c(=O)c2cccc(-c3ccc(OC(F)(F)F)cc3)c12 [Embodiment 68] | 1 to 5
21 | Cc1cn(-c2ccc(N3C[C@@H](C)O[C@@H](C)C3)cc2)c(=O)c2cccc(-c3ccc(C4CC4)cc3)c12 [Embodiment 69, 5-(4-cyclopropylphenyl)-2-(4-((2R,6S)-2,6-dimethylmorpholino)phenyl)-4-methylisoquinolin-1(2H)-one] | 0.5 to 1
22 | C[C@@H]1CN(c2ccc(-n3ccc4c(-c5ccc(C#N)cc5)cccc4c3=O)cn2)C[C@H](C)O1 [Embodiment 70, 4-(2-(6-(2,6-dimethylmorpholino-4-yl)pyridin-3-yl)-1-oxo-1,2-dihydroisoquinolin-5-yl)benzonitrile] | 0.5 to 1
23 | C[C@@H]1CN(c2ccc(-n3ccc4c(-c5ccc(C(F)(F)F)cc5)cccc4c3=O)cn2)C[C@H](C)O1 [Embodiment 71] | 1 to 5
24 | C[C@@H]1CN(c2ccc(-n3ccc4c(-c5ccc(OC(F)(F)F)cc5)cccc4c3=O)cn2)C[C@H](C)O1 [Embodiment 72] | 1 to 5
25 | C[C@@H]1CN(c2ccc(-n3ccc4c(-c5ccc(C#N)cc5)cccc4c3=O)cc2)C[C@H](C)O1 [Embodiment 73] | 0.5 to 1
26 | C[C@@H]1CN(c2ccc(-n3ccc4c(-c5ccc(C(F)(F)F)cc5)cccc4c3=O)cc2)C[C@H](C)O1 [Embodiment 74] | 1 to 5
27 | C[C@@H]1CN(c2ccc(-n3ccc4c(-c5ccc(OC(F)(F)F)cc5)cccc4c3=O)cc2)C[C@H](C)O1 [Embodiment 75] | 1 to 5
28 | C[C@@H]1CN(c2ccc(-n3cc(Cl)c4c(-c5ccc(C#N)cc5)cccc4c3=O)cc2Cl)C[C@H](C)O1 [Embodiment 76, 4-(4-chloro-2-(3-chloro-4-((2S,6R)-2,6-dimethylmorpholino)phenyl)-1-oxo-1,2-dihydroisoquinolin-5-yl)benzonitrile] | 0.1 to 0.5
29 | C[C@@H]1CN(c2ccc(-n3ccc4c(-c5ccc(C#N)cc5)cccc4c3=O)cc2Cl)C[C@H](C)O1 [Embodiment 77, 4-(2-(3-chloro-4-((2S,6R)-2,6-dimethylmorpholino)phenyl)-1-oxo-1,2-dihydroisoquinolin-5-yl)benzonitrile] | 0.5 to 1
30 | C[C@@H]1CN(c2ccc(-n3ccc4c(-c5ccc(C#N)cc5)cccc4c3=O)cc2Br)C[C@H](C)O1 [Embodiment 79, 4-(2-(3-bromo-4-((2S,6R)-2,6-dimethylmorpholino)phenyl)-1-oxo-1,2-dihydroisoquinolin-5-yl)benzonitrile] | 0.5 to 1
31 | C[C@@H]1CN(c2ccc(-n3ccc4c(-c5ccc(C#N)cc5)cccc4c3=O)cc2C2CC2)C[C@H](C)O1 [Embodiment 80, 4-(2-(3-cyclopropyl-4-((2S,6R)-2,6-dimethylmorpholino)phenyl)-1-oxo-1,2-dihydroisoquinolin-5-yl)benzonitrile] | 1 to 5
32 | Cc1cn(-c2ccc(N3C[C@@H](C)O[C@@H](C)C3)cc2)c(=O)c2ccnc(-c3ccc(C#N)cc3)c12 [Embodiment 81, 4-(6-(4-((2S,6R)-2,6-dimethylmorpholino)phenyl)-8-methyl-5-oxo-5,6-dihydro-2,6-naphthyridin-1-yl)benzonitrile] | 1 to 5
33 | Cc1cn(-c2ccc(N3C[C@@H](C)O[C@@H](C)C3)cc2)c(=O)c2ccnc(-c3ccc(C(F)(F)F)cc3)c12 [Embodiment 82] | 1 to 5
34 | Cc1cn(-c2ccc(N3C[C@@H](C)O[C@@H](C)C3)cc2)c(=O)c2ccnc(-c3ccc(OC(F)(F)F)cc3)c12 [Embodiment 83] | 1 to 5
35 | Cc1cn(-c2ccc(N3C[C@@H](C)O[C@@H](C)C3)cc2)c(=O)c2ccnc(-c3ccc(C#N)s3)c12 [Embodiment 84] | 1 to 5
36 | Cc1cn(-c2ccc(N3C[C@@H](C)O[C@@H](C)C3)cc2)c(=O)c2nccc(-c3ccc(C#N)cc3)c12 [Embodiment 85, 4-(7-(4-((2S,6R)-2,6-dimethylmorpholino)phenyl)-5-methyl-8-oxo-7,8-dihydro-1,7-naphthyridin-4-yl)benzonitrile] | 0.5 to 1
37 | Cc1cn(-c2ccc(N3C[C@@H](C)O[C@@H](C)C3)cc2)c(=O)c2cncc(-c3ccc(C#N)cc3)c12 [Embodiment 86, 4-(7-(4-((2S,6R)-2,6-dimethylmorpholino)phenyl)-5-methyl-8-oxo-7,8-dihydro-2,7-naphthyridin-4-yl)benzonitrile] | 0.5 to 1
